# Source: ChEMBL document CHEMBL1201862, “PubChem BioAssay data set” (2004)
# The source made the active and inactive calls.
# Assays:
# [1] = potency of ADAM10 substrate cleavage blockers – biochemical, QFRET, dose response (AID 743254);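 further: ADAM10 enzyme with the DM2 quenched FRET peptide as substrate; EDANS fluorescence gain as the protease cuts the substrate; inhibitor potency against ADAM10 proteolytic activity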
# [2] = biological target: Disintegrin and metalloproteinase domain-containing protein 17 (Homo sapiens, UniProt P78536); test: inhibition of ADAM17 substrate cleavage – biochemical, quenched FRET substrate, counter-screen for ADAM10 exosite inhibitor project, dose response (AID 743253)
# [3] = biological target: T1, DNA repair and recombination protein RAD54-like (Homo sapiens, UniProt Q92698); test: RAD54 Holliday junction migration blockers – biochemical, fluorescence, cherry-picked samples, dose series, confirmation (AID 651657); type: functional
# T1 sequence (Q92698 whole entry): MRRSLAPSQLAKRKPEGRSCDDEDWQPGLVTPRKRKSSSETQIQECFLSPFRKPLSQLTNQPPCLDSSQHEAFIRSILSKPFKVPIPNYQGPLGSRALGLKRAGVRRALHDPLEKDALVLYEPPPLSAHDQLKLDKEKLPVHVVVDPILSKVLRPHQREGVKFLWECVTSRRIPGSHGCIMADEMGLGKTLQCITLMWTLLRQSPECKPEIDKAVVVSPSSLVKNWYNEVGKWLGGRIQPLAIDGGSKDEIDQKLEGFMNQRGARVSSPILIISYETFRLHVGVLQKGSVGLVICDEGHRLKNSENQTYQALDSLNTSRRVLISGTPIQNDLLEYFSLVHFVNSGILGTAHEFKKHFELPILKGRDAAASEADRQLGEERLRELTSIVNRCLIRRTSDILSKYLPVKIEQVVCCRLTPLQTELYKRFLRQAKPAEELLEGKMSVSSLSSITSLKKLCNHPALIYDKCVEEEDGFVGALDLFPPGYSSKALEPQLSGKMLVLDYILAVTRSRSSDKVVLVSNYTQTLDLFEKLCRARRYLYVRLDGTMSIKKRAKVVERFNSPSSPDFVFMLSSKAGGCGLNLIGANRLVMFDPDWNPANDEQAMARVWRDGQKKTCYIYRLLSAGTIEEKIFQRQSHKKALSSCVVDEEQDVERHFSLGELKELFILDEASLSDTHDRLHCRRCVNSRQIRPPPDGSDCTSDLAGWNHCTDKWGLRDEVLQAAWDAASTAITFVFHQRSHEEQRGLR
# [4] = biological target: T2, DNA repair protein RAD52 homolog (Homo sapiens, UniProt P43351); type: functional, biochemical
# T2 sequence (P43351 whole entry): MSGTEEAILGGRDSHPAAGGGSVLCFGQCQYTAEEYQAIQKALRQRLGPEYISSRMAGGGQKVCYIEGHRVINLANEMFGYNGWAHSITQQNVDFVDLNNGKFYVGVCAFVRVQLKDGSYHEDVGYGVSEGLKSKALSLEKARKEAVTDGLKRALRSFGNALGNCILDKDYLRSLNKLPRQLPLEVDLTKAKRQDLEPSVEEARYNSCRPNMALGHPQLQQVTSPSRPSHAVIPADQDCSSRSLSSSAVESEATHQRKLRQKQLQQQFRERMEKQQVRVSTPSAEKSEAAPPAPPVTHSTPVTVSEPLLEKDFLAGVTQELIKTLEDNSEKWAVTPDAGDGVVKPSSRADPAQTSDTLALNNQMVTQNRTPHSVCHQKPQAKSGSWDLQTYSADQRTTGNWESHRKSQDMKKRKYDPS
# [5] = biological target: Glyceraldehyde-3-phosphate dehydrogenase (Homo sapiens, UniProt P04406)
# Estrogen receptor = biological target: T3, Estrogen receptor (Homo sapiens, UniProt P03372);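 further: potency for inhibiting coactivator peptide recruitment to the receptor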
# T3 sequence (P03372 whole entry): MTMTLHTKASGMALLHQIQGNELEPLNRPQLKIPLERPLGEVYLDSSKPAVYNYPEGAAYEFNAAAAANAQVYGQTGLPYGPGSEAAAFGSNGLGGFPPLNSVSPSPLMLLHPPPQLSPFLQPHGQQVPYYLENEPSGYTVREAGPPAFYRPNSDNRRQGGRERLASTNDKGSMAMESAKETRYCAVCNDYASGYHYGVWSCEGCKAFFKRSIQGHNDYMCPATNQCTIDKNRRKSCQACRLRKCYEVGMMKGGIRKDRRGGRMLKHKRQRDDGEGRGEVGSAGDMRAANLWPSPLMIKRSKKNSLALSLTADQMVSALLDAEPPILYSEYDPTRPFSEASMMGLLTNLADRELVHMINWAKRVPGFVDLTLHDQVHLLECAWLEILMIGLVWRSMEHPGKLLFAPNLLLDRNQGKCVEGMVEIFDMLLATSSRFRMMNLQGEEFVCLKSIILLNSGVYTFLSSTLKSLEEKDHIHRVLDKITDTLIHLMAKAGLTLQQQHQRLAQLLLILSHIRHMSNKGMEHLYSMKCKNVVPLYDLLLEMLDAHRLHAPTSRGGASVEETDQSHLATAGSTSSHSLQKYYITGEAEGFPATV
# [6] = biological target: T4, Alkaline phosphatase, tissue-nonspecific isozyme (Homo sapiens, UniProt P05186); test: potency against alkaline phosphatase TNAP – biochemical, luminescent, dose response, SAR follow-up (AID 1056)
# T4 sequence (P05186 whole entry): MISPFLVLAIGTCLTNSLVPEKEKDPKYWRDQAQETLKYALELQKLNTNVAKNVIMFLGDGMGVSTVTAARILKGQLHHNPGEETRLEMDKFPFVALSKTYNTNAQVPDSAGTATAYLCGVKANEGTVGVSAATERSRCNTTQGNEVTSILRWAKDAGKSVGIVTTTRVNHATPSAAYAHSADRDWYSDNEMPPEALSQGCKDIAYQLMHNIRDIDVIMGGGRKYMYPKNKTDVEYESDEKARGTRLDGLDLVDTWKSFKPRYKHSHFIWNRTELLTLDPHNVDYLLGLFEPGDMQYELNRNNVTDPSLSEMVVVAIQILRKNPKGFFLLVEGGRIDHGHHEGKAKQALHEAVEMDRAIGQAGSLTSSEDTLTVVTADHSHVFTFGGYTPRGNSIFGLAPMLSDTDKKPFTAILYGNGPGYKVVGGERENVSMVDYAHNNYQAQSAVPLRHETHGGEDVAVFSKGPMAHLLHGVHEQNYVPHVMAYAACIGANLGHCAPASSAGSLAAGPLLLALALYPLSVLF
# [7] = biological target: T5, Calpain-2 catalytic subunit (Sus scrofa, UniProt P43367); test: m-calpain protease blockers, concentration series – biochemical, fluorogenic peptide substrate, dose response (AID 1420); type: functional
# T5 sequence (P43367 whole entry): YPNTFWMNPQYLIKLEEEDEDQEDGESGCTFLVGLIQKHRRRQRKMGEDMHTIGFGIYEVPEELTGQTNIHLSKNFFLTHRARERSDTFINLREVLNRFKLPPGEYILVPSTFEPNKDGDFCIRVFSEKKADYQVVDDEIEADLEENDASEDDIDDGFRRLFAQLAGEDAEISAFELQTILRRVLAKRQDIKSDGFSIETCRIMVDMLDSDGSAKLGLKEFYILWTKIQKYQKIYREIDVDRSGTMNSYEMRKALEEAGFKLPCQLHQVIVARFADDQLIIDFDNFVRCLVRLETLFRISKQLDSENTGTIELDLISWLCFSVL
# [8] = biological target: T6, Small ubiquitin-related modifier 1 (Homo sapiens, UniProt P63165); test: SUMO1 protein interaction blockers, potency – biochemical, fluorescence polarization, uHTS hits, dose response (AID 624382); type: functional; details: read-out: IC50_Mean
# [9] = biological target: T6, Small ubiquitin-related modifier 1; test: SUMO1 protein-protein binding blockers, potency – biochemical, FRET, dose response (AID 624383); type: functional; details: read-out: IC50_Mean
# [10] = P. falciparum Dd2 growth inhibitors, dose response, SYBR Green, cherry-picked samples (AID 1159567); type: functional, cell-based
# [11] = toxicity to human hepatoma HepG2 cells – cell-based, cherry-picked samples, cytotoxicity control, dose response (AID 1159577); type: functional
# [12] = biological target: T7, Endoribonuclease toxin MazF (Escherichia coli K-12, UniProt P0AE70); test: activation of MazEF endoribonuclease cleavage – biochemical, fluorescence, single-stranded RNA substrate, uHTS hits, dose response (AID 588481); type: functional
# T7 sequence (P0AE70 whole entry): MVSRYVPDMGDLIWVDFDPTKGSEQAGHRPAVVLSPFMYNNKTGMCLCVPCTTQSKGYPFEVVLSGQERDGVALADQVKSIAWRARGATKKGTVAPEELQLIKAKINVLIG
# [13] = biological target: T7, Endoribonuclease toxin MazF; test: substrate-only fluorescence increase artefacts – biochemical, single-stranded RNase substrate, counter-screen for MazEF activator project, dose response (AID 588502); type: functional
# BJ [14] = test: BJ-TERT fibroblast viability loss – cell-based, RAS-independent, luminescence, dose response (AID 1933); type: functional; details: Homo sapiens
# BJ [15] = test: cells; type: functional, cell-based; details: Homo sapiens
# BJ [16] = test: BJ-TERT-LT-ST fibroblast viability loss – cell-based, RAS-independent, luminescence, dose response (AID 1935); type: functional; details: Homo sapiens;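 further: BJ fibroblasts immortalized with TERT plus LT and ST oncogenes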
# [17] = DRD fibroblast viability loss – cell-based, non-viral oncogenic, luminescence, dose response (AID 1934); type: functional; details: Homo sapiens
# [18] = biological target: T8, Microphthalmia-associated transcription factor (Homo sapiens, UniProt O75030); test: reducers of TRPM1 reporter luminescence, concentration series – cell-based, SK-MEL-5, cherry-picked, set 3, MITF inhibitor project, dose response (AID 493073); type: functional;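 further: SK-MEL-5 melanoma cells with luciferase driven by the MITF target TRPM1 promoter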
# T8 sequence (O75030 whole entry): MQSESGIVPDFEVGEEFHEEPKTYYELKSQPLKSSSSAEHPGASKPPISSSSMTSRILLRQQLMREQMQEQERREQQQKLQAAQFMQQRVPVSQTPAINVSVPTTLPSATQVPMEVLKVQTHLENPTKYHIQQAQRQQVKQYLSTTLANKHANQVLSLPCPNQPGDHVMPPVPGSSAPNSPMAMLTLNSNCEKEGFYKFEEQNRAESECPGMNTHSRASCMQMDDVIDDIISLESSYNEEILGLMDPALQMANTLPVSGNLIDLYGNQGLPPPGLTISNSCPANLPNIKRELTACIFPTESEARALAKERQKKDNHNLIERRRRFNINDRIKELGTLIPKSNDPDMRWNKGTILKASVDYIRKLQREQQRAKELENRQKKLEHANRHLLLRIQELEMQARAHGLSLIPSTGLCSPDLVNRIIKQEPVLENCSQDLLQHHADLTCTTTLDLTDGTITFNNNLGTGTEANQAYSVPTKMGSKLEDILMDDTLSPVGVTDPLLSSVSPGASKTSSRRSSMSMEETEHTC
# [19] = Fluorescence-based cell-based high throughput dose response assay for inhibitors of the interaction of nucleotide-binding oligomerization domain containing 2 (NOD2) and the receptor-interacting serine-threonine kinase 2 (RIPK2).; type: functional; details: Homo sapiens
# [20] = biological target: T9, RNA-binding protein pos-1 (Caenorhabditis elegans, UniProt G5EF15); test: disruptors of C. elegans POS-1 RNA interaction – biochemical, fluorescence polarization, dose response (AID 1964);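 further: purified POS-1 fused to maltose binding protein made in E. coli; potency of compounds blocking POS-1 binding to fluorescent RNA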
# T9 sequence (G5EF15 whole entry): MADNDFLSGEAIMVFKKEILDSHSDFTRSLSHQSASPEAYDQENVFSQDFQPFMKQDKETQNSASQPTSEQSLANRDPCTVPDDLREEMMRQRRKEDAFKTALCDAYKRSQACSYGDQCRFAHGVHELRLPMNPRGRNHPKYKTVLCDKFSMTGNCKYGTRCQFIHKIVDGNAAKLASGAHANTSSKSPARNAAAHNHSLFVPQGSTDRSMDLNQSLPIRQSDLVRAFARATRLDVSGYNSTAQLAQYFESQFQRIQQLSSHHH
# [21] = biological target: T10, Zinc finger protein mex-5 (Caenorhabditis elegans, UniProt Q9XUB2); test: potency of MEX-5 RNA-binding blockers – biochemical, C. elegans, fluorescence polarization, dose response (AID 1960)
# T10 sequence (Q9XUB2 whole entry): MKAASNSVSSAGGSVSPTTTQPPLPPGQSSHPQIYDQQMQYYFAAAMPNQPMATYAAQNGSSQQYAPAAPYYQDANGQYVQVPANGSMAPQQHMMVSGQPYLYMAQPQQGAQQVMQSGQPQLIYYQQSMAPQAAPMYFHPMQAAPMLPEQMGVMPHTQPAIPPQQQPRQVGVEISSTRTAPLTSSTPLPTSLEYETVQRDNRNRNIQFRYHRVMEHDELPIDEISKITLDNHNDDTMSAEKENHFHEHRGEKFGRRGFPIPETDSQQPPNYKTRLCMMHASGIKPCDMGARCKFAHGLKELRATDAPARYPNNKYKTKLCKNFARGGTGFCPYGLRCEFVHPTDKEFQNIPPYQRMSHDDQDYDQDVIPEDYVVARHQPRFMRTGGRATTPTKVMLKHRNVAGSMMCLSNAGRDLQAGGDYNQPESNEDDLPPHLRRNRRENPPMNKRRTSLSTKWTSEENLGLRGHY
# Sequence of Disintegrin and metalloproteinase domain-containing protein 17 (P78536 whole entry, the tested form may be a part): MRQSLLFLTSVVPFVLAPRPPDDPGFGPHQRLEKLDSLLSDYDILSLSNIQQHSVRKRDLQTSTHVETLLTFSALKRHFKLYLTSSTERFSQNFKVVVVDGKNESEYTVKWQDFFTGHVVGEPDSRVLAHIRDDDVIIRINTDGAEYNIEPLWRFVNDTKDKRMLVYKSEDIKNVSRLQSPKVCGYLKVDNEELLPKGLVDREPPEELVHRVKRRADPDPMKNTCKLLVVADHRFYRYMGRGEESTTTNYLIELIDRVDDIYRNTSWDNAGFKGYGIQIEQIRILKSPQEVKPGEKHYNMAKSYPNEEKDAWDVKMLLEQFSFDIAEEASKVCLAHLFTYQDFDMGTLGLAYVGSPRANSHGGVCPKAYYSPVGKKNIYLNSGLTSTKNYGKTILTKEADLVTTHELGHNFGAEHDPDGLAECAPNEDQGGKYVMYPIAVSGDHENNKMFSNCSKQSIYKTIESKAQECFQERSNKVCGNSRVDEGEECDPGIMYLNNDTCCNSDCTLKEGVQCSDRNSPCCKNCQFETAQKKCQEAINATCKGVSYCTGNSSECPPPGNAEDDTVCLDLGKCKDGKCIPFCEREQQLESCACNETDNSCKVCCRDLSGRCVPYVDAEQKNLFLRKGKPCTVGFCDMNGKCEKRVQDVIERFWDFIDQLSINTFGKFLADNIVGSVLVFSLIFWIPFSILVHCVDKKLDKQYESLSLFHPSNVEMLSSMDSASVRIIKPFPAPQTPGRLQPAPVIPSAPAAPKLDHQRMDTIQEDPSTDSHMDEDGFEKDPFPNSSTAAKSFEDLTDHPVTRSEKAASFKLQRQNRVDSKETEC
# T6 sequence (P63165 whole entry): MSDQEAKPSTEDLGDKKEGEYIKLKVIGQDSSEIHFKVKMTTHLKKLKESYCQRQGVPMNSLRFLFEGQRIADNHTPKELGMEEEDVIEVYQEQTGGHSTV
# Sequence of Glyceraldehyde-3-phosphate dehydrogenase (P04406 whole entry): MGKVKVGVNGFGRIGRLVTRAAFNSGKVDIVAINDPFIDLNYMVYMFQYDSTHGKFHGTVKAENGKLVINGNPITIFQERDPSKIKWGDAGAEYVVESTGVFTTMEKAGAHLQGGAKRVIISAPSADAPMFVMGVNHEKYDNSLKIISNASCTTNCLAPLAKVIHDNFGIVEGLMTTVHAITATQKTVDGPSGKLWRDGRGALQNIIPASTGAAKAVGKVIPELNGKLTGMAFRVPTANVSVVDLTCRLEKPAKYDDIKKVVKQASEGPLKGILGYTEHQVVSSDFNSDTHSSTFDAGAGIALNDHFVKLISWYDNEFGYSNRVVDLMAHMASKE
smiles,measurement,setting,value
COc1ccc2c(c1)c(CC(=O)Nc1ccc(C(C)=O)cc1)c(C)n2C(=O)c1ccc(Cl)cc1,IC50,[1],> 69.5 µM (inactive)
same,IC50,[2],> 69.5 µM (inactive)
CCN(CC)CCN(C(=O)C1=COCCO1)c1nc2c(OC)ccc(OC)c2s1,AC50,[3],23.5 µM (active)
same,AC50,[4],8.89 µM (active)
Nc1nc(N2C(=O)C3CC=CCC3C2=O)nn1-c1ccccc1 (stereo not given),IC50,[5],> 100 µM (not active)
same,IC50,Estrogen receptor,> 50 µM (not active)
same,IC50,[6],> 100 µM (inactive)
O=C(Nc1ccc(Nc2ccncc2)cc1)c1ccc(Nc2ccnc3ccc([N+](=O)[O-])cc23)cc1,IC50,[7],3.36 µM (not active)
same,IC50,[8],> 66.6 µM (inactive)
same,IC50,[9],326 nM (active)
same,AC50,[3],100 µM (inactive)
COc1ccc2c3c([nH]c2c1)[C@H](CO)N(CC1CC1)CC31CCN(S(=O)(=O)c2cccc(F)c2)CC1,AC50,[10],4 µM (active)
same,AC50,[11],> 39 µM (inactive)
COc1ccc(CN([C@H](CO)CC(C)C)S(=O)(=O)N(Cc2ccccc2)[C@H](CO)CC(C)C)cc1,IC50,[1],5.93 µM (active)
same,IC50,[2],> 69.5 µM (inactive)
CCOc1ccccc1NC(=O)Cn1cnc2c(cnn2-c2ccc(C)c(C)c2)c1=O,EC50,[12],> 99 µM (inactive)
same,EC50,[13],> 99 µM (inactive)
Cc1[nH]c2ccc(O)cc2c1CCN,AC50,[4],4.06 µM (active)
CCN1C(=O)/C(=C2\C=Cc3ccccc3N2CC)OC1=S,EC50,[12],> 99 µM (inactive)
same,EC50,[13],> 99 µM (inactive)
CNC(=O)COC(=O)c1ccccc1C(=O)c1ccc(Cl)c([N+](=O)[O-])c1,EC50,BJ [14],4.68 µM (active)
same,EC50,BJ [15],5.44 µM (inconclusive)
same,EC50,BJ [16],2.42 µM (inconclusive)
same,EC50,[17],10 µM (inconclusive)
same,AC50,[18],9.77 µM (active)
same,IC50,[19],2.58 µM (active)
COc1ccc(/C=C2\CCCC(C(=O)C(F)(F)F)=C2O)cc1,EC50,[20],36 µM (inconclusive)
same,EC50,[21],41.4 µM (active)
same,EC50,[12],> 99 µM (inactive)
same,EC50,[13],33.8 µM (inactive)
